The experiment relates to Donor 1 GMA Expanded T-Cell Lines (222-AG11, 222-AG12, 222-BA11, 222-BC11). Put plainly: ATP proliferation assay (CellTiter Glo), Donor 1 GMA expanded T-cell lines, incl. reactivity to non-canonical GA peptides. Type of experiment: cell-based, human. The following applies: for Proliferation (luminescent ATP assay), Mean: T-cell line 222-AG12, autologous B-LCL; for Non-Canonical Peptide Non-Reactivity: 222-AG12, proliferation <2 times no antigen control; for Nonreactive T-Cell Line: Donor 1 GMA expanded lines, stimulation with the non-canonical GA peptide. The protocol: Proliferation was evaluated by measuring ATP content using a luminescent method (CellTiter Glo Luminescent Cell Viability Assay, Promega, Madison, Wis., cat. #G7571) or by measuring BrdU uptake by ELISA (Millipore cat. #2752), in both cases following kit instructions. A split well format was used. Cells in each well were resuspended and 65 μl transferred to the wells of each of two new U-bottom 96-well plates, to generate the replicate plates. For the initial screening, the original 96-well plate received mitomycin-treated autologous PBMC as APC plus 10 μg/mL antigen (GA). A first replicate plate received 100 μl., mitomycin-treated PBMC alone (2×10^5), and no antigen, and a second replicate plate received 100 μL mitomycin-treated PBMC plus GA at a final concentration of 10 μg/mL. Therefore, all three plates received autologous APC (PBMC) treated with mitomycin C to prevent cell division. […] The latter two plates were incubated for 3 days at 37° C., 6% CO2 before adding CellTiter Glo or BrdU and measuring signal. IL-2 was added at 10 U/mL to the original 96-well plate for expansion on Day 17. For subsequent screenings, mitomycin-treated EBV-transformed autologous B-LCL (2×10^5 to 5×10^5 cells/mL) were used as APC.
On Day 24, cells from the wells corresponding to the eight presumptive GA-specific human T-cell lines listed in Table 4 were transferred to a 24-well plate and expanded by stimulating with 10 μg/mL GMA and mitomycin-treated autologous PBMC as APC (3×10^6 per well, i.e., 1.5×10^6/mL). On Day 32 four of the eight lines, 222-BA11, 222-BC11, 222-AG11, and 222-AG12, were stimulated with 0, 1, 10 and 100 μg/mL GMA and tested in a 96-well plate for a proliferative response to GMA using an ATP assay, again using autologous PBMC as APC (2×10^5 per well, i.e., 1×10^6/mL). […] FIGS. 2A and B show the results of the ATP proliferation assay carried out using 222-AG12, 222-BC11, 222-AG11, and 222-BA11 at Day 35 (control=no antigen). FIGS. 3A-C compare the results of ATP proliferation assays carried out after stimulation with varying concentrations of GMA or Copaxone as indicated, using cell lines 222-BA11, 222-BC11, and 222-AG12.
Donor 1 GMA T-cell line 222-AG12 was assayed for proliferation following stimulation with 0, 1, 10, and 30 μg/mL each of peptides GLT 631, GAT 631, GAT 111, LT 11, GT 11, GL 14, COP, and GMA, at a T-cell concentration of 2×10^5 cells/mL, in the presence of mitomycin C-treated autologous B-LCL. Line 222-AG12 was assayed after 3 rounds of restimulation (4 total stimulations). Proliferation was measured by luminescent ATP assay.
Background: ATP-based viability assays read luminescence as a measure of living cells.

Take glatiramer acetate [COP]: the “Proliferation (luminescent ATP assay), Mean” value (“Proliferation” below) is 10056 RLU (1 ug/mL antigen), 233083 RLU (10 ug/mL antigen) and 227055 RLU (30 ug/mL antigen).

glatiramer acetate [GMA]: the “proliferative response relative to control, dose comparison” value (222-BA11, 222-BC11, 222-AG11, 222-AG12, Day 32, 0, 1, 10, 100 μg/mL) is given as “best proliferative response relative to control was observed in the cells stimulated with 10 μg/mL”.

For the substance poly (Glu-Ala-Tyr; 1:1:1) [GAT 111], the “Non-Canonical Peptide Non-Reactivity” value is recorded as “GAT 111” and the “Nonreactive T-Cell Line” value is listed as 222-AG12 (Donor 1). For the same substance, the “Proliferation” value (1 ug/mL antigen) is recorded as 3391 RLU. For the same substance, the “Proliferation” value (10 ug/mL antigen) is reported as 2568 RLU. In addition, the “Proliferation” value (30 ug/mL antigen) amounted to 2245 RLU.

On to poly (Glu-Ala-Tyr; 6:3:1) [GAT 631], for which the “Non-Canonical Peptide Non-Reactivity” value is “GAT 631” and the “Nonreactive T-Cell Line” value is reported as 222-AG12 (Donor 1). Further, the “Proliferation” value (1 ug/mL antigen) was found to be 3442 RLU. In addition, the “Proliferation” value (10 ug/mL antigen) is 3217 RLU. For the same substance, the “Proliferation” value (30 ug/mL antigen) came out at 3548 RLU.

For the substance poly (Glu-Lys-Tyr; 6:3:1) [GLT 631], the “Non-Canonical Peptide Non-Reactivity” value is given as “GLT 631” and the “Nonreactive T-Cell Line” value is reported as 222-AG12 (Donor 1). In addition, the “Proliferation” value (1 ug/mL antigen) is 3801 RLU. Moreover, where the note is “10 ug/mL antigen”, the “Proliferation” value amounted to 4002 RLU. Moreover, where the note is “30 ug/mL antigen”, the “Proliferation” value is reported as 5292 RLU.

As for poly (Glu-Lys; 1:4) [GL 14], the “Non-Canonical Peptide Non-Reactivity” value was “GL 14” and the “Nonreactive T-Cell Line” value is given as 222-AG12 (Donor 1). The “Proliferation” value (1 ug/mL antigen) was found to be 3531 RLU. Further, the “Proliferation” value (10 ug/mL antigen) is 55 RLU. In addition, the “Proliferation” value (30 ug/mL antigen) is 43 RLU.

Regarding poly (Glu-Tyr; 1:1) [GT 11], the “Non-Canonical Peptide Non-Reactivity” value is “GT 11” and the “Nonreactive T-Cell Line” value is recorded as 222-AG12 (Donor 1). The “Proliferation” value (1 ug/mL antigen) was 2650 RLU. For the same substance, the “Proliferation” value (10 ug/mL antigen) came out at 3285 RLU. Moreover, the “Proliferation” value (30 ug/mL antigen) stood at 2231 RLU.

For poly (Lys-Tyr; 1:1) [LT 11], the “Non-Canonical Peptide Non-Reactivity” value is “LT 11” and the “Nonreactive T-Cell Line” value is reported as 222-AG12 (Donor 1). The “Proliferation” value (1 ug/mL antigen) is on record as 3452 RLU. Moreover, the “Proliferation” value (10 ug/mL antigen) amounted to 4242 RLU. In addition, under “30 ug/mL antigen”, the “Proliferation” value turned out to be 2347 RLU.

The record behind these values is patent publication US9995734B2, “Human T cell line assay for evaluating the immunologic identity of glatiramer acetate preparations” (Mylan Inc., priority 2013, dated 2018).
